Read-outs that look alike come from different tables or passages of the source. Values belong to the molecule of their own block, whether it stands above or below them.
Key:
tumor cell lines = assay: In vitro anti-proliferative testing, summary statements; type: cell-based, human; conditions: FIGS. 57-59: PC3, DUPRO, LNCAP
Method: (§1) A conventional MTT assay was used to evaluate percent cell survival. Exponentially growing monolayer cells were plated in 96-well plates at a density of 500 cells per well and allowed to grow for 24 hours. Serial dilutions of the drugs were added to the wells. Six days after drug treatment, 25 μl of MTT solution (5 mg/ml) was added to each well and incubated for 4 hours at 37° C. Then 100 μl of lysis buffer (20% sodium dodecyl sulfate, 50% DMF, and 0.8% acetic acid, pH 4.7) was added to each well and incubated for an additional 22 hours. A microplate reader (“EMAX”-brand, Molecular Devices, Sunnyvale, Calif.) set at 570 nm was used to determine the optical density of the cultures. Results are expressed as a ratio of the optical density in drug-treated wells to the optical density in wells treated with vehicle only.

[1] = test system: human prostate adenocarcinoma cell line PC-3; assay: MTT assay, quinones, PC-3; type: cell-based; conditions: Table 3, treatment time not given in cell, read-out: ID50 PC-3
Method: (§2) Cell Culture: The human lung adenocarcinoma cell line, A549, and human prostatic cancer cell line, DUPRO, were a gift from Dr. M. Eileen Dolan, University of Chicago, Department of Medicine. A549 was grown in Ham's F-12K medium (Fisher Scientific, Itasca, Ill.) supplemented with 10% fetal bovine serum and 2 mM L-glutamine. DUPRO was grown in RPMI-1640 supplemented with 10% fetal bovine serum. The human colon carcinoma cell line, HT29, and the human breast carcinoma cell line, MCF7, were obtained from the American Type Culture Collection, Rockville, Md. HT29 cells were grown in McCoy's 5A medium (Gibco, BRL, Gaithersburg, Md.) supplemented with 10% fetal bovine serum. MCF7 cells were grown in Richter's Improved Modified Eagle's medium supplemented with 10% fetal bovine serum and 2.2 g/L sodium bicarbonate. The human prostate adenocarcinoma cell lines, LNCAP, PC-3 and DU145, were gifts from Dr. George Wilding, University of Wisconsin Comprehensive Cancer Center and the Department of Medicine, and were grown in Dulbecco's Modified Eagle's medium supplemented with a 5% fetal bovine serum. The malignant glioma cell line, U251MG NCI was obtained from the brain tumor tissue bank at the University of California, San Francisco Department of Neurosurgery, and was grown in Dulbecco's Modified Eagle's medium supplemented wth 10% fetal bovine serum. DUPRO, A549 and MCF7 cells were grown in 100 units/mL penicillin and 100 μg/mL streptomycin. HT29 and U251MG NCI cells were grown in 50 μg/mL gentamycin. LNCAP, PC-3 and DU145 cells were maintained in 1% antibiotic antimycotic solution (Sigma, St. Louis, Mo.). All cell cultures were maintained at 37° C. in 5% CO2/95% humidified air.
(§3) MTT assay. Exponentially growing monolayer cells were plated in 96 well plates at a density of 500 cells/well and allowed to grow for 24 h. Serially diluted drug solutions were added such that the final drug concentrations in the treatment media were between 0 and 35 μM. Cells were incubated with drug at either 4 hr or 72 hr. After 4 hr and 72 hr treatment, drugs were removed, fresh media (without) drug (100 uL) was added and cells were incubated for 6 days. After six days, 25 μL of a Dulbecco's phosphate-buffered saline solution containing 5 mg/mL of MTT (Thiazolyl blue) (Sigma) was added to each well and incubated for 4 h at 37° C. Then 100 μL of lysis buffer (20% sodium dodecyl sulfate, 50% N,N-dimethylformamide and 0.8% acetic acid, pH 4.7) was added to each well and incubated for an additional 22 h. A microplate reader (E max, Molecular Devices, Sunnyvale, Calif.) set at 570 nm was used to determine the optical density. Results were plotted as a ratio of the optical density in drug treated wells to the optical density in wells treated with vehicle alone. Plotting and estimation of ID50 values were accomplished with manufacturer supplied software. The data is presented below in Tables 3, 4, 5 and 6.

[2] = test system: human prostatic cancer cell line, DUPRO; assay: MTT assay, quinones, DUPRO; type: cell-based; conditions: Table 3, treatment time not given in cell, read-out: ID50 DUPRO
Method: as §2
(§4) MTT assay. Exponentially growing monolayer cells were plated in 96 well plates at a density of 500 cells/well and allowed to grow for 24 h. Serially diluted drug solutions were added such that the final drug concentrations in the treatment media were between 0 and 35 μM. […] A microplate reader (E max, Molecular Devices, Sunnyvale, Calif.) set at 570 nm was used to determine the optical density. […]

[3] = test system: human prostate adenocarcinoma cell line DU145; assay: MTT assay, quinones, DU145; type: cell-based; conditions: DU-145, Table 3, treatment time not given in cell, read-out: ID50 DU145
Method: as §2, §4

[4] = test system: prostate xenograft tumors; conditions: nude mice; cited from earlier work
[5] = Creaven et al. (1997); cited from earlier work
[6] = rats, Kanter et al. (1994); cited from earlier work
[7] = test system: A549 human large cell hung carcinoma; conditions: constant infusion via Alzet pump delivery for 5 days; cited from earlier work
[8] = test system: malignant glioma cell line, U251MG NCI; assay: MTT assay, quinones, U251MG NCI; type: cell-based, human; conditions: read-out: ID50 Brain U251-MG
Method: as §2, with “The malignant glioma cell line, U251MG NCI was obtained from the brain tumor tissue bank at the University of California, San Francisco Department of Neurosurgery, and was grown in Dulbecco's Modified Eagle's medium supplemented wth 10% fetal bovine serum. DUPRO, A549 and MCF7 cells were grown in 100 units/mL penicillin and 100 μg/mL streptomycin. HT29 and U251MG NCI cells were grown in 50 μg/mL gentamycin. LNCAP, PC-3 and DU145 cells were maintained in 1% antibiotic antimycotic solution (Sigma, St. Louis, Mo.). All cell cultures were maintained at 37° C. in 5% CO2/95% humidified air.” left out
MTT assay. […] A microplate reader (E max, Molecular Devices, Sunnyvale, Calif.) set at 570 nm was used to determine the optical density. […]

[9] = test system: human breast carcinoma cell line, MCF7; assay: MTT assay, quinones, MCF7; type: cell-based; conditions: Table 4, treatment time not given in cell, read-out: ID50 Breast MCF7
Method: as §2, §3

[10] = in one study; cited from earlier work
[11] = test system: human prostate cancer cells PC3; assay: MTT assay, polyamine analogs, PC3; type: cell-based; conditions: PC-3, survival of cultured PC3 cells, figure legends, read-out: ED50 (the source's name)
Method: (§5) Human breast cancer cell line MCF7 was grown in Richter's Improved Modified Eagle's Medium supplemented with 10% fetal bovine serum (FBS) and 2.2 g/L sodium bicarbonate. Human brain tumor cell line U251 MG-NCI was grown in Dulbecco's Modified Eagle's Medium supplemented with 10% FBS. Human lung cancer cell line A549 was grown in Ham's F-12K medium (Cellgro, Mediatech, Inc., VA), supplemented with 10% FBS and 2 mM L-glutamine. Human colon cancer cell line HT29 was cultured in McCoy's 5A medium (Gibco, BRL, Gaithersburg, Md.) supplemented with 10% FBS. Human prostate cancer cell lines PC-3, LNCAP and DuPro were grown in RPMI 1640 Medium (Cellgro, Mediatech, Inc., VA) supplemented with 10% FBS. Another human prostate cancer cell line DU145 was grown in Dulbecco's Modified Eagle's Medium (Gibco, BRL, Gaithersburg, Md.) supplemented with 5% FBS. The A549, MCF7, PC3, LNCAP and DuPro cell lines were cultured in 100 units/mL penicillin and 100 μg/mL streptomycin. HT29 and U251MG cell lines were grown in 50 μg/mL gentamycin (Gibco, BRL, Gaithersburg, Md.). DU145 cell line was maintained in 1% antibitic-antimycotic solution (Sigma, St. Louis, Mo.). The cell cultures were maintained at 37° C. in 5% CO2/95% humidified air. DuPro cells were obtained from M. Eileen Dolan, University of Chicago. All other cells are available from the American Type Culture Collection, Rockville, Md.
as §1

[12] = test system: human prostate cancer cells DU145; assay: MTT assay, polyamine analogs, DU145; type: cell-based; conditions: Homo sapiens
Method: as §5, §1

[13] = test system: human prostate cancer cells DUPRO; assay: MTT assay, polyamine analogs, DUPRO; type: cell-based; conditions: Homo sapiens, DuPro
Method: as §5, §1

[14] = test system: human prostate cancer cells LNCAP; assay: MTT assay, polyamine analogs, LNCAP; type: cell-based; conditions: Homo sapiens, LNCaP, survival of cultured LNCAP cells, figure legends; read-out: ED50 (the source's name)
Method: as §5
A conventional MTT assay was used to evaluate percent cell survival. Exponentially growing monolayer cells were plated in 96-well plates at a density of 500 cells per well and allowed to grow for 24 hours. Serial dilutions of the drugs were added to the wells. Six days after drug treatment, 25 μl of MTT solution (5 mg/ml) was added to each well and incubated for 4 hours at 37° C. […] A microplate reader (“EMAX”-brand, Molecular Devices, Sunnyvale, Calif.) set at 570 nm was used to determine the optical density of the cultures. Results are expressed as a ratio of the optical density in drug-treated wells to the optical density in wells treated with vehicle only.

[15] = test system: human colon cancer cells HT29; assay: MTT assay, polyamine analogs, HT29; type: cell-based
Method: (§6) As shown in Table 2 and FIGS. 1-32, several novel conformationally restricted polyamine analogs were tested for anti-proliferative properties against cancer cells.
as §5, §1

[16] = test system: human lung cancer cells A549; assay: MTT assay, polyamine analogs, A549; type: cell-based; conditions: Homo sapiens
Method: as §6, §5, §1

[17] = test system: human breast cancer cells MCF7; assay: MTT assay, polyamine analogs, MCF7; type: cell-based
Method: as §6, §5, §1

[18] = test system: human brain tumor cells U251 MG NCI; assay: MTT assay, polyamine analogs, U251 MG NCI; type: cell-based
Method: as §5, §1

SMILES: CCNCCCCNCCCCNCCCCNCCCCNCCO [SL-11141]
effectiveness against tumor cell lines in vitro (tumor cell lines): display effectiveness against tumor cell lines in vitro

IC50 [1]: 700 nM
IC50 [2]: 2200 nM
IC50 [3]: 130 nM
SMILES: O=C1C=C(OCCCCCCCc2ccc(Nc3c4ccccc4nc4ccccc34)cc2)c2ccccc2C1=O [SL-11064, Quinone-anilinoacridine]

SMILES: CCNCCCNCCCNCCCNCC [BE-333, N1,N11-diethylnorspermine]
inhibition of prostate xenograft tumors [4]: particularly effective in inhibiting prostate xenograft tumors in nude mice
side effects [5]: headache, nausea and vomiting, unilateral weakness, dysphagia, dysarthria, numbness, paresthesias, and ataxia
toxicity on administration [6]: labored breathing, convulsive movements and acute death
anti-tumor activity, effect of schedule [7]: dramatically improves the anti-tumor activity

SMILES: CC1(C)CCC2=C(O1)c1ccccc1C(=O)C2=O [SL-11058]
IC50 ([8]; Table 6, non-quinone compounds): > 31200 nM

SMILES: CCNCCCCNCCCCNCCCCNCCCCNCC [BE-4444, 1,19-bis(ethylamino)-5,10,15-triazanonadecane]
inhibition of prostate xenograft tumors [4]: particularly effective in inhibiting prostate xenograft tumors in nude mice

IC50 [1]: 17100 nM
IC50 [2]: 19300 nM
IC50 [3]: 11200 nM
SMILES: O=C1C=C(OCCCCCCO)c2ccccc2C1=O [SL-11051]

SMILES: CCNCCCNCCCCCCCNCCCNCC [BE-373]
inhibition of prostate xenograft tumors [4]: particularly effective in inhibiting prostate xenograft tumors in nude mice

IC50 [1]: 5900 nM
IC50 [2]: 7900 nM
IC50 [3]: 130 nM
IC50 [9]: 5100 nM
SMILES: O=C1C=C(CCCCCCCCc2ccc(Nc3c4ccccc4nc4ccccc34)cc2)c2ccccc2C1=O [SL-11125, Quinone-acridine]

SMILES: CC(/C=N/NC(=N)N)=N\NC(=N)N [MGBG, methylglyoxal-bis-guanylhydrazone]
side effects, drug deaths [10]: drug deaths occurred in over half of treated animals

IC50 ([12]; DU-145, 144 h, read-out: concentration needed for 50% growth inhibition (ID50) DU-145, Table 2, MTT six days after drug treatment): 130 nM
IC50 ([13]; 144 h, read-out: concentration needed for 50% growth inhibition (ID50) DUPRO, Table 2, MTT six days after drug treatment): 980 nM
IC50 ([15]; HT-29, 144 h, read-out: concentration needed for 50% growth inhibition (ID50) HT-29, Table 2, MTT six days after drug treatment): 2000 nM
IC50 ([16]; A549, 144 h, read-out: concentration needed for 50% growth inhibition (ID50) A549, Table 2, MTT six days after drug treatment): > 31200 nM
IC50 ([17]; MCF7, 144 h, read-out: concentration needed for 50% growth inhibition (ID50) MCF7, Table 2, MTT six days after drug treatment): > 31200 nM
SMILES: CCNC/C=C\CNC/C=C\CNC/C=C\CNCC [SL-11108]
EC50 [11]: 2200 nM
EC50 ([12]; DU-145, survival of cultured DU145 cells, figure legends, read-out: ED50 (the source's name)): 130 nM
EC50 ([13]; survival of cultured DUPRO cells, figure legends, read-out: ED50 (the source's name)): 980 nM
EC50 [14]: 7700 nM
EC50 ([15]; HT-29, survival of cultured HT29 cells, figure legends, read-out: ED50 (the source's name)): 2000 nM
EC50 ([16]; A549, survival of cultured A549 cells, figure legends, read-out: ED50 (the source's name)): > 31200 nM
EC50 ([17]; MCF7, survival of cultured MCF7 cells, figure legends, read-out: ED50 (the source's name)): > 31200 nM
IC50 ([18]; U-251, 144 h, read-out: concentration needed for 50% growth inhibition (ID50) U251MG, Table 2, MTT six days after drug treatment): 2000 nM
EC50 ([18]; U-251, survival of cultured U251 MG NCI cells, figure legends, read-out: ED50 (the source's name)): 2000 nM

IC50 [9]: 17200 nM
SMILES: O=C1C=C(OCCCCCNC2CCCCC2)c2ccccc2C1=O [SL-11060]
IC50 ([8]; Homo sapiens, U-251, Table 4, treatment time not given in cell): > 31200 nM

Source: patent publication US7279502B2, “Polyamine analog conjugates and quinone conjugates as therapies for cancers and prostate diseases” (Cellgate, Inc., priority 1999, dated 2007)
